ChEMBL document CHEMBL3046948, “Synthesis and SAR investigation of natural phenylpropene-derived methoxylated cinnamaldehydes and their novel Schiff bases as potent antimicrobial and antioxidant agents” (2013)
In brackets after ≈: the same amount, converted by molar mass. Activity calls are given as the source filed them. No cut-off for these calls is given here.

Columns and labels:
Format in all cases: functional
Klebsiella pneumoniae = assay: Antimicrobial activity against Klebsiella pneumoniae MTCC 109 assessed as growth inhibition after 24 hr by broth microdilution method
Burkholderia cepacia = assay: Antimicrobial activity against Burkholderia cepacia MTCC 438 assessed as growth inhibition after 24 hr by broth microdilution method
Escherichia coli = assay: Antimicrobial activity against Escherichia coli MTCC 43 assessed as growth inhibition after 24 hr by broth microdilution method
Bacillus subtilis = assay: Antimicrobial activity against Bacillus subtilis MTCC 121 assessed as growth inhibition after 24 hr by broth microdilution method
Staphylococcus aureus = assay: Antimicrobial activity against Staphylococcus aureus MTCC 3160 assessed as growth inhibition after 24 hr by broth microdilution method
Aspergillus sydowii = assay: Antimicrobial activity against Aspergillus sydowii MTCC 4335 assessed as growth inhibition after 5 days by broth microdilution method
Aspergillus niger = assay: Antimicrobial activity against Aspergillus niger MTCC 404 assessed as growth inhibition after 5 days by broth microdilution method
Enterobacter cloacae = assay: Antimicrobial activity against Enterobacter cloacae MTCC 509 assessed as growth inhibition after 24 hr by broth microdilution method
Micrococcus luteus = assay: Antimicrobial activity against Micrococcus luteus MTCC 2470 assessed as growth inhibition after 24 hr by broth microdilution method
Candida albicans = assay: Antimicrobial activity against Candida albicans MTCC 3017 assessed as growth inhibition after 24 hr by broth microdilution method
Trichophyton rubrum = assay: Antimicrobial activity against Trichophyton rubrum MTCC 296 assessed as growth inhibition after 5 days by broth microdilution method
Pseudomonas aeruginosa = assay: Antimicrobial activity against Pseudomonas aeruginosa MTCC 424 assessed as growth inhibition after 24 hr by broth microdilution method
Aspergillus parasiticus = assay: Antimicrobial activity against Aspergillus parasiticus MTCC 2797 assessed as growth inhibition after 5 days by broth microdilution method
Pichia kudriavzevii = assay: Antimicrobial activity against Pichia kudriavzevii MTCC 231 assessed as growth inhibition after 24 hr by broth microdilution method

Row | Compound | MIC (Klebsiella pneumoniae; MTCC 109, 24 h) [µM] | MIC (Burkholderia cepacia; MTCC 438, 24 h) [µM] | MIC (Escherichia coli; MTCC 43, 24 h) [µM] | MIC (Bacillus subtilis; MTCC 121, 24 h) [µM] | MIC (Staphylococcus aureus; MTCC 3160, 24 h) [µM] | MIC (Aspergillus sydowii; MTCC 4335, 120 h) [µM] | MIC (Aspergillus niger; MTCC 404, 120 h) [µM] | MIC (Enterobacter cloacae; MTCC 509, 24 h) [µM] | MIC (Micrococcus luteus; MTCC 2470, 24 h) [µM] | MIC (Candida albicans; MTCC 3017, 24 h) [µM] | MIC (Trichophyton rubrum; MTCC 296, 120 h) [µM] | MIC (Pseudomonas aeruginosa; MTCC 424, 24 h) [µM] | MIC (Aspergillus parasiticus; MTCC 2797, 120 h) [µM] | MIC (Pichia kudriavzevii; MTCC 231, 24 h) [µM] | MIC (Micrococcus luteus) | MIC (Pseudomonas aeruginosa) | MIC (Burkholderia cepacia) | MIC (Escherichia coli) | MIC (Bacillus subtilis) | MIC (Staphylococcus aureus) | other results
1 | COc1ccc(/C=C/C=O)cc1OC [3,4-DIMETHOXY CINNAMALDEHYDE] | 10400 (≈ 2000 µg/mL) | 5200 (≈ 1000 µg/mL) | 10400 (≈ 2000 µg/mL) | 5200 (≈ 1000 µg/mL) | 5200 (≈ 1000 µg/mL) | 5200 (≈ 1000 µg/mL) | 5200 (≈ 1000 µg/mL) | 10400 (≈ 2000 µg/mL) | 2600 (≈ 500 µg/mL) | 2600 (≈ 500 µg/mL) | 2600 (≈ 500 µg/mL) | 2600 (≈ 500 µg/mL) | 2600 (≈ 500 µg/mL) | 2600 (≈ 500 µg/mL) | – | – | – | – | – | – | –
2 | O=C/C=C/c1ccccc1 [CINNAMALDEHYDE] | 3780 (≈ 500 µg/mL) | 1890 (≈ 250 µg/mL) | 1890 (≈ 250 µg/mL) | 1890 (≈ 250 µg/mL) | 1890 (≈ 250 µg/mL) | 3780 (≈ 500 µg/mL) | 1890 (≈ 250 µg/mL) | 1890 (≈ 250 µg/mL) | 3780 (≈ 500 µg/mL) | 470 (≈ 62.1 µg/mL) | 470 (≈ 62.1 µg/mL) | 1890 (≈ 250 µg/mL) | 3780 (≈ 500 µg/mL) | 470 (≈ 62.1 µg/mL) | – | – | – | – | – | – | –
3 | COc1ccc(C=O)cc1 [ANISALDEHYDE] | 14700 (≈ 2000 µg/mL) | – | 14700 (≈ 2000 µg/mL) | 14700 (≈ 2000 µg/mL) | 1830 (≈ 249 µg/mL) | 1830 (≈ 249 µg/mL) | 7340 (≈ 999 µg/mL) | 14700 (≈ 2000 µg/mL) | – | 3670 (≈ 500 µg/mL) | 920 (≈ 125 µg/mL) | – | 1830 (≈ 249 µg/mL) | 3670 (≈ 500 µg/mL) | inactive | inactive | – | – | – | – | –
4 | OC/C=C/c1ccccc1 [CINNAMIC ALCOHOL] | 3720 (≈ 499 µg/mL) | 1860 (≈ 250 µg/mL) | 7450 (≈ 1000 µg/mL) | 7450 (≈ 1000 µg/mL) | 14900 (≈ 2000 µg/mL) | 3720 (≈ 499 µg/mL) | 3720 (≈ 499 µg/mL) | 7450 (≈ 1000 µg/mL) | 7450 (≈ 1000 µg/mL) | 1860 (≈ 250 µg/mL) | 1860 (≈ 250 µg/mL) | 3720 (≈ 499 µg/mL) | 3720 (≈ 499 µg/mL) | 3720 (≈ 499 µg/mL) | – | – | – | – | – | – | –
5 | CCCCCCCCCCCCOC(=O)/C=C/c1ccccc1 | 3160 (≈ 1000 µg/mL) | – | – | – | – | – | – | – | – | 790 (≈ 250 µg/mL) | 790 (≈ 250 µg/mL) | – | – | 390 (≈ 123 µg/mL) | inactive | inactive | inactive | inactive | inactive | inactive | MIC (Aspergillus sydowii): inactive; MIC (Aspergillus niger): inactive; MIC (Enterobacter cloacae): inactive; MIC (Aspergillus parasiticus): inactive
6 | CN(C)c1ccc(/C=C/C=O)cc1 | – | – | – | – | – | – | – | 11400 (≈ 2000 µg/mL) | 11400 (≈ 2000 µg/mL) | – | – | – | – | – | – | inactive | inactive | inactive | inactive | inactive | MIC (Klebsiella pneumoniae): inactive; MIC (Aspergillus sydowii): inactive; MIC (Aspergillus niger): inactive; MIC (Candida albicans): inactive; MIC (Trichophyton rubrum): inactive; MIC (Aspergillus parasiticus): inactive; MIC (Pichia kudriavzevii): inactive
7 | COc1ccc(/C=C/C=O)cc1 [PARA-METHOXY CINNAMALDEHYDE] | 3080 (≈ 500 µg/mL) | – | 3080 (≈ 500 µg/mL) | 6160 (≈ 999 µg/mL) | 3080 (≈ 500 µg/mL) | 3080 (≈ 500 µg/mL) | 3080 (≈ 500 µg/mL) | 3080 (≈ 500 µg/mL) | 3080 (≈ 500 µg/mL) | 770 (≈ 125 µg/mL) | 770 (≈ 125 µg/mL) | 770 (≈ 125 µg/mL) | 3080 (≈ 500 µg/mL) | 770 (≈ 125 µg/mL) | – | – | inactive | – | – | – | –
8 | NYSTATIN | – | – | – | – | – | – | – | – | – | – | – | – | – | – | – | – | – | – | – | – | MIC (Aspergillus sydowii): 4 µM; MIC (Aspergillus niger): 30 µM; MIC (Candida albicans): 8 µM; MIC (Trichophyton rubrum): 8 µM; MIC (Aspergillus parasiticus): 60 µM; MIC (Pichia kudriavzevii): 30 µM
9 | CC1(C)S[C@@H]2[C@H](NC(=O)[C@H](N)c3ccccc3)C(=O)N2[C@H]1C(=O)O [AMPICILLIN] | 5700 (≈ 1990 µg/mL) | 5700 (≈ 1990 µg/mL) | 80 (≈ 28 µg/mL) | 10 (≈ 3.49 µg/mL) | 10 (≈ 3.49 µg/mL) | – | – | 5700 (≈ 1990 µg/mL) | 10 (≈ 3.49 µg/mL) | – | – | 2800 (≈ 978 µg/mL) | – | – | – | – | – | – | – | – | –
10 | O=Cc1ccc2c(c1)OCO2 [PIPERONAL] | 3330 (≈ 500 µg/mL) | – | 3330 (≈ 500 µg/mL) | 6660 (≈ 1000 µg/mL) | 3330 (≈ 500 µg/mL) | 3330 (≈ 500 µg/mL) | 3330 (≈ 500 µg/mL) | 3330 (≈ 500 µg/mL) | 3330 (≈ 500 µg/mL) | 830 (≈ 125 µg/mL) | 830 (≈ 125 µg/mL) | 830 (≈ 125 µg/mL) | 3330 (≈ 500 µg/mL) | 830 (≈ 125 µg/mL) | – | – | inactive | – | – | – | –
11 | COc1cc(OC)c(OC)cc1C=O [ASARALDEHYDE] | 10200 (≈ 2000 µg/mL) | 5100 (≈ 1000 µg/mL) | 10200 (≈ 2000 µg/mL) | 5100 (≈ 1000 µg/mL) | 5100 (≈ 1000 µg/mL) | 5100 (≈ 1000 µg/mL) | 5100 (≈ 1000 µg/mL) | 10200 (≈ 2000 µg/mL) | 2550 (≈ 500 µg/mL) | 2550 (≈ 500 µg/mL) | 160 (≈ 31.4 µg/mL) | 2550 (≈ 500 µg/mL) | 2550 (≈ 500 µg/mL) | 2550 (≈ 500 µg/mL) | – | – | – | – | – | – | –
12 | C=CCc1ccc2c(c1)OCO2 [SAFROLE] | – | – | – | – | – | – | – | – | – | 6160 (≈ 999 µg/mL) | 6160 (≈ 999 µg/mL) | – | – | 6160 (≈ 999 µg/mL) | inactive | inactive | inactive | inactive | inactive | inactive | MIC (Klebsiella pneumoniae): inactive; MIC (Aspergillus sydowii): inactive; MIC (Aspergillus niger): inactive; MIC (Enterobacter cloacae): inactive; MIC (Aspergillus parasiticus): inactive
13 | CCOC(=O)/C=C/c1ccc2c(c1)OCO2 | – | – | – | – | – | 140 (≈ 30.8 µg/mL) | 560 (≈ 123 µg/mL) | – | – | – | – | 560 (≈ 123 µg/mL) | 140 (≈ 30.8 µg/mL) | – | inactive | – | inactive | inactive | inactive | inactive | MIC (Klebsiella pneumoniae): inactive; MIC (Enterobacter cloacae): inactive; MIC (Candida albicans): inactive; MIC (Trichophyton rubrum): inactive; MIC (Pichia kudriavzevii): inactive
14 | C/C=C/c1ccc2c(c1)OCO2 [ISOSAFROLE] | – | – | – | – | – | – | – | – | – | – | 3080 (≈ 500 µg/mL) | – | – | – | inactive | inactive | inactive | inactive | inactive | inactive | MIC (Klebsiella pneumoniae): inactive; MIC (Aspergillus sydowii): inactive; MIC (Aspergillus niger): inactive; MIC (Enterobacter cloacae): inactive; MIC (Candida albicans): inactive; MIC (Aspergillus parasiticus): inactive; MIC (Pichia kudriavzevii): inactive
15 | C/C=C/c1cc(OC)c(OC)cc1OC [TRANS-ASARONE] | – | – | – | – | – | 2400 (≈ 500 µg/mL) | 4800 (≈ 1000 µg/mL) | 9600 (≈ 2000 µg/mL) | – | 600 (≈ 125 µg/mL) | 600 (≈ 125 µg/mL) | – | 1200 (≈ 250 µg/mL) | 1200 (≈ 250 µg/mL) | inactive | inactive | inactive | inactive | inactive | inactive | MIC (Klebsiella pneumoniae): inactive
16 | CCOc1ccc(/C=C/C=O)cc1OC | 9700 (≈ 2000 µg/mL) | 4850 (≈ 1000 µg/mL) | 9700 (≈ 2000 µg/mL) | 4850 (≈ 1000 µg/mL) | 2420 (≈ 499 µg/mL) | 4850 (≈ 1000 µg/mL) | 4850 (≈ 1000 µg/mL) | 9700 (≈ 2000 µg/mL) | 4850 (≈ 1000 µg/mL) | 2420 (≈ 499 µg/mL) | 2420 (≈ 499 µg/mL) | 4850 (≈ 1000 µg/mL) | 2420 (≈ 499 µg/mL) | 4850 (≈ 1000 µg/mL) | – | – | – | – | – | – | –
17 | COc1ccc(/C=C/C=O)c(Br)c1OC | – | – | – | – | – | – | – | – | – | – | – | – | – | – | inactive | inactive | inactive | inactive | inactive | inactive | MIC (Klebsiella pneumoniae): inactive; MIC (Aspergillus sydowii): inactive; MIC (Aspergillus niger): inactive; MIC (Enterobacter cloacae): inactive; MIC (Candida albicans): inactive; MIC (Trichophyton rubrum): inactive; MIC (Aspergillus parasiticus): inactive; MIC (Pichia kudriavzevii): inactive
18 | O=C/C=C/c1ccc2c(c1)OCO2 | 1420 (≈ 250 µg/mL) | 710 (≈ 125 µg/mL) | 2840 (≈ 500 µg/mL) | 2840 (≈ 500 µg/mL) | 2840 (≈ 500 µg/mL) | 350 (≈ 61.7 µg/mL) | 1420 (≈ 250 µg/mL) | 1420 (≈ 250 µg/mL) | 2840 (≈ 500 µg/mL) | 350 (≈ 61.7 µg/mL) | 350 (≈ 61.7 µg/mL) | 350 (≈ 61.7 µg/mL) | 710 (≈ 125 µg/mL) | 350 (≈ 61.7 µg/mL) | – | – | – | – | – | – | –
